US6737383B1, “Herbicidal oxadiazolidines” (priority 1999, dated 2004)

What was measured:
bedstraw = assay: Test B pre/postemergence bedstraw; type: in vivo, Galium aparine
Method in brief: (§1)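 Test chemicals in a non-phytotoxic solvent mixture with surfactant were sprayed preemergence onto planted seeds and postemergence onto plants 2 to 18 cm tall (1- to 4-leaf stage). After twelve to sixteen days in a greenhouse, injury was visually rated against untreated controls from 0 (no effect) to 10 (complete control).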

blackgrass = assay: Test B pre/postemergence blackgrass; type: in vivo, Alopecurus myosuroides
Method in brief: as §1

surinam grass = assay: Test B pre/postemergence surinam grass; type: in vivo, Brachiaria decumbens
Method in brief: as §1

cocklebur = assay: Test B pre/postemergence cocklebur; type: in vivo, Xanthium strumarium
Method in brief: as §1

corn = assay: Test B pre/postemergence corn; type: in vivo, Zea mays
Method in brief: as §1

crabgrass = assay: Test B pre/postemergence crabgrass; type: in vivo, Digitaria sanguinalis
Method in brief: as §1

giant foxtail = assay: Test B pre/postemergence giant foxtail; type: in vivo, Setaria faberii
Method in brief: as §1

morningglory = assay: Test B pre/postemergence morningglory; type: in vivo, Ipomoea hederacea
Method in brief: as §1

pigweed = assay: Test B pre/postemergence pigweed; type: in vivo, Amaranthus retroflexus
Method in brief: as §1

rape = assay: Test B pre/postemergence rape; type: in vivo, Brassica napus
Method in brief: as §1

soybean = assay: Test B pre/postemergence soybean; type: in vivo, Glycine max
Method in brief: as §1

sugar beet = assay: Test B pre/postemergence sugar beet; type: in vivo, Beta vulgaris
Method in brief: as §1

velvetleaf = assay: Test B pre/postemergence velvetleaf; type: in vivo, Abutilon theophrasti
Method in brief: as §1

wheat = assay: Test B pre/postemergence wheat; type: in vivo, Triticum aestivum
Method in brief: as §1

wild oat = assay: Test B pre/postemergence wild oat; type: in vivo, Avena fatua
Method in brief: as §1

purple nutsedge = assay: Test B pre/postemergence purple nutsedge; type: in vivo, Cyperus rotundus
Method in brief: as §1

[1] = Postemergence, Rate 62 g/ha, scale of 0 to 10, 0 is no effect, 10 is complete control
[2] = Preemergence, Rate 62 g/ha, scale of 0 to 10 where 0 is no effect and 10 is complete control
[3] = Postemergence, Rate 125 g/ha, scale 0 to 10, 0 is no effect, 10 is complete control
[4] = Postemergence, Rate 500 g/ha, scale 0 to 10, 0 is no effect, 10 is complete control
[5] = Preemergence, Rate 125 g/ha, scale 0 to 10, 0 is no effect, 10 is complete control
[6] = Rate 250 g/ha, Postemergence, scale of 0 to 10 where 0 is no effect and 10 is complete control
[7] = Preemergence, Rate 500 g/ha, scale of 0 to 10 where 0 is no effect and 10 is complete control
[8] = Preemergence, Rate 125 g/ha, scale of 0 to 10 where 0 is no effect and 10 is complete control
[9] = Preemergence, Rate 250 g/ha, scale 0 (no effect) to 10 (complete control)
[10] = Rate 500 g/ha, Preemergence, scale 0 to 10 (0 no effect, 10 complete control)

CCCCn1c(=O)on(C(=O)N(c2ccc(Cl)cc2)C(C)C)c1=O [Compound 527]
2: Blackgrass plant response rating (blackgrass; [5]) | Blackgrass plant response rating (0 to 10 scale) (blackgrass; Preemergence, Rate 250 g/ha) | Plant response rating, B. signalgrass (surinam grass; [2]) | B. signalgrass plant response rating (surinam grass; [5]) | Plant response rating, Cocklebur (cocklebur; [4]) | Plant response rating, Cocklebur (cocklebur; [6]) | Morningglory plant response rating (morningglory; [7]) | Plant response rating, Rape (rape; [4]) | Rape plant response rating (rape; [5]) | Rape plant response rating (0 to 10 scale) (rape; Preemergence, Rate 250 g/ha) | Plant response rating, Sugarbeets (sugar beet; [4]) | Velvetleaf plant response rating (velvetleaf; [3]) | Velvetleaf plant response rating (velvetleaf; [5]) | Velvetleaf plant response rating (0 to 10 scale) (velvetleaf; Preemergence, Rate 250 g/ha) | Velvetleaf plant response rating (velvetleaf; [7])
10: Plant response rating, Crabgrass (crabgrass; [4]) | Crabgrass plant response rating (crabgrass; [5]) | Crabgrass plant response rating (0 to 10 scale) (crabgrass; Preemergence, Rate 250 g/ha) | Crabgrass plant response rating (crabgrass; [7]) | Giant foxtail plant response rating (giant foxtail; [5]) | Giant foxtail plant response rating (0 to 10 scale) (giant foxtail; Preemergence, Rate 250 g/ha) | Giant foxtail plant response rating (giant foxtail; [7])
5: Giant foxtail plant response rating (giant foxtail; [1]) | Plant response rating, Morningglory (morningglory; [6]) | Plant response rating, Soybean (soybean; [4])
6: Plant response rating, Morningglory (morningglory; [4]) | Sugarbeets plant response rating (sugar beet; [5]) | Sugarbeets plant response rating (0 to 10 scale) (sugar beet; Preemergence, Rate 250 g/ha) | Sugarbeets plant response rating (sugar beet; [7])
8: Giant foxtail plant response rating (giant foxtail; [3]) | Plant response rating, Giant foxtail (giant foxtail; [6])
9: Plant response rating, B. signalgrass (surinam grass; [4]) | Plant response rating, Crabgrass (crabgrass; [2]) | Plant response rating, Crabgrass (crabgrass; [6]) | Plant response rating, Giant foxtail (giant foxtail; [4]) | Plant response rating, Giant foxtail (giant foxtail; [2])
3: Blackgrass plant response rating (blackgrass; [3]) | Cocklebur plant response rating (cocklebur; [7]) | Morningglory plant response rating (morningglory; [1]) | Morningglory plant response rating (morningglory; [3]) | Soybean plant response rating (soybean; [1]) | Velvetleaf plant response rating (velvetleaf; [1]) | Plant response rating, Velvetleaf (velvetleaf; [4]) | Plant response rating, Velvetleaf (velvetleaf; [6]) | Wild oats plant response rating (0 to 10 scale) (wild oat; Preemergence, Rate 250 g/ha)
7: Plant response rating, Blackgrass (blackgrass; [4])
0: Bedstraw plant response rating (bedstraw; [1]) | Plant response rating, Bedstraw (bedstraw; [2]) | Blackgrass plant response rating (blackgrass; [1]) | Plant response rating, Blackgrass (blackgrass; [2]) | B. signalgrass plant response rating (surinam grass; [1]) | B. signalgrass plant response rating (surinam grass; [3]) | Plant response rating, B. signalgrass (surinam grass; [6]) | Cocklebur plant response rating (cocklebur; [1]) | Cocklebur plant response rating (cocklebur; [3]) | Plant response rating, Cocklebur (cocklebur; [2]) | Cocklebur plant response rating (cocklebur; [5]) | Cocklebur plant response rating (0 to 10 scale) (cocklebur; Preemergence, Rate 250 g/ha) | Corn plant response rating (corn; [1]) | Corn plant response rating (corn; [3]) | Plant response rating, Corn (corn; [4]) | Plant response rating, Corn (corn; [2]) | Corn plant response rating (corn; [5]) | Corn plant response rating (0 to 10 scale) (corn; Preemergence, Rate 250 g/ha) | Corn plant response rating (corn; [7]) | Plant response rating, Corn (corn; [6]) | Plant response rating, Morningglory (morningglory; [2]) | Morningglory plant response rating (morningglory; [5]) | Morningglory plant response rating (0 to 10 scale) (morningglory; Preemergence, Rate 250 g/ha) | Redroot pigweed plant response rating (pigweed; [1]) | Redroot pigweed plant response rating (pigweed; [3]) | Plant response rating, Redroot pigweed (pigweed; [4]) | Plant response rating, Redroot pigweed (pigweed; [2]) | Plant response rating, Redroot pigweed (pigweed; [6]) | Rape plant response rating (rape; [1]) | Rape plant response rating (rape; [3]) | Plant response rating, Rape (rape; [2]) | Plant response rating, Rape (rape; [6]) | Plant response rating, Soybean (soybean; [2]) | Soybean plant response rating (soybean; [5]) | Soybean plant response rating (0 to 10 scale) (soybean; Preemergence, Rate 250 g/ha) | Soybean plant response rating (soybean; [7]) | Sugarbeets plant response rating (sugar beet; [1]) | Sugarbeets plant response rating (sugar beet; [3]) | Plant response rating, Sugarbeets (sugar beet; [2]) | Plant response rating, Sugarbeets (sugar beet; [6]) | Plant response rating, Velvetleaf (velvetleaf; [2]) | Wheat plant response rating (wheat; [1]) | Wheat plant response rating (wheat; [3]) | Plant response rating, Wheat (wheat; [4]) | Plant response rating, Wheat (wheat; [2]) | Wheat plant response rating (wheat; [5]) | Wheat plant response rating (0 to 10 scale) (wheat; Preemergence, Rate 250 g/ha) | Plant response rating, Wheat (wheat; [6]) | Wild oats plant response rating (wild oat; [1]) | Wild oats plant response rating (wild oat; [3]) | Plant response rating, Wild oats (wild oat; [4]) | Plant response rating, Wild oats (wild oat; [2]) | Wild oats plant response rating (wild oat; [5]) | Plant response rating, Wild oats (wild oat; [6]) | Nutsedge plant response rating (purple nutsedge; [1]) | Plant response rating, Nutsedge (purple nutsedge; [2]) | Nutsedge plant response rating (purple nutsedge; [5]) | Nutsedge plant response rating (0 to 10 scale) (purple nutsedge; Preemergence, Rate 250 g/ha) | Nutsedge plant response rating (purple nutsedge; [7]) | Plant response rating, Nutsedge (purple nutsedge; [6])
4: Plant response rating, Blackgrass (blackgrass; [6]) | B. signalgrass plant response rating (0 to 10 scale, 0 is no effect, 10 is complete control) (surinam grass; Preemergence, Rate 250 g/ha) | Crabgrass plant response rating (crabgrass; [1]) | Crabgrass plant response rating (crabgrass; [3]) | Redroot pigweed plant response rating (pigweed; [5]) | Redroot pigweed plant response rating (0 to 10 scale) (pigweed; Preemergence, Rate 250 g/ha) | Redroot pigweed plant response rating (pigweed; [7]) | Soybean plant response rating (soybean; [3]) | Plant response rating, Soybean (soybean; [6])

CC(C)N(C(=O)n1oc(=O)n(C(C)C(=S)N(C)C)c1=O)c1ccc(Cl)cc1 (stereo not shown) [Compound 733]
6: B. signalgrass plant response rating (surinam grass; [2]) | Plant response rating, B. signalgrass (surinam grass; [8]) | Plant response rating, Giant foxtail (giant foxtail; [8])
7: Plant response rating, Blackgrass (blackgrass; [8]) | Redroot pigweed plant response rating (pigweed; [10])
8: Blackgrass plant response rating (blackgrass; [9]) | B. signalgrass plant response rating (surinam grass; [9]) | Wild oats plant response rating (wild oat; [10])
0: Bedstraw plant response rating (bedstraw; [2]) | Plant response rating, Bedstraw (bedstraw; [8]) | Bedstraw plant response rating (bedstraw; [9]) | Bedstraw plant response rating (bedstraw; [10]) | Cocklebur plant response rating (cocklebur; [2]) | Plant response rating, Cocklebur (cocklebur; [8]) | Cocklebur plant response rating (cocklebur; [9]) | Cocklebur plant response rating (cocklebur; [10]) | Corn plant response rating (corn; [2]) | Plant response rating, Corn (corn; [8]) | Corn plant response rating (corn; [9]) | Corn plant response rating (corn; [10]) | Redroot pigweed plant response rating (pigweed; [2]) | Plant response rating, Redroot pigweed (pigweed; [8]) | Rape plant response rating (rape; [2]) | Plant response rating, Rape (rape; [8]) | Soybean plant response rating (soybean; [2]) | Plant response rating, Soybean (soybean; [8]) | Soybean plant response rating (soybean; [9]) | Soybean plant response rating (soybean; [10]) | Sugarbeets plant response rating (sugar beet; [2]) | Plant response rating, Sugarbeets (sugar beet; [8]) | Sugarbeets plant response rating (sugar beet; [9]) | Sugarbeets plant response rating (sugar beet; [10]) | Velvetleaf plant response rating (velvetleaf; [2]) | Plant response rating, Velvetleaf (velvetleaf; [8]) | Velvetleaf plant response rating (velvetleaf; [9]) | Wheat plant response rating (wheat; [2]) | Plant response rating, Wheat (wheat; [8]) | Wheat plant response rating (wheat; [9]) | Wheat plant response rating (wheat; [10]) | Nutsedge plant response rating (purple nutsedge; [2]) | Plant response rating, Nutsedge (purple nutsedge; [8]) | Nutsedge plant response rating (purple nutsedge; [9])
3: Giant foxtail plant response rating (giant foxtail; [2]) | Rape plant response rating (rape; [9])
4: Blackgrass plant response rating (blackgrass; [2])
2: Crabgrass plant response rating (crabgrass; [2]) | Morningglory plant response rating (morningglory; [9]) | Morningglory plant response rating (morningglory; [10]) | Wild oats plant response rating (wild oat; [2]) | Plant response rating, Wild oats (wild oat; [8]) | Wild oats plant response rating (wild oat; [9])
9: Crabgrass plant response rating (crabgrass; [9]) | Crabgrass plant response rating (crabgrass; [10]) | Giant foxtail plant response rating (giant foxtail; [9]) | Giant foxtail plant response rating (giant foxtail; [10])
1: Morningglory plant response rating (morningglory; [2]) | Plant response rating, Morningglory (morningglory; [8]) | Velvetleaf plant response rating (velvetleaf; [10])
10: Blackgrass plant response rating (blackgrass; [10]) | B. signalgrass plant response rating (surinam grass; [10])
5: Plant response rating, Crabgrass (crabgrass; [8]) | Redroot pigweed plant response rating (pigweed; [9]) | Rape plant response rating (rape; [10])
